Results published in PubChem BioAssay (NCI).
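Test compounds were applied to cells in 96-well plates for 48 hours at 5 doses. GI50 is the concentration that inhibits growth by half. At the TGI there is no net growth.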

How the values were obtained:
Experiment in all cases: NCI-60 cell line screen, 48 h; in the data active = GI50 below about 0.43 µM; inactive = the rest
SF-539 CNS = test system: SF-539 CNS
OVCAR-8 ovarian = test system: OVCAR-8 ovarian
SK-MEL-2 melanoma = test system: SK-MEL-2 melanoma
SF-268 CNS = test system: SF-268 CNS
HL-60(TB) leukemia = test system: HL-60(TB) leukemia
SK-MEL-5 melanoma = test system: SK-MEL-5 melanoma
NCI-H522 lung = test system: NCI-H522 lung
SW-620 colon = test system: SW-620 colon
KM20L2 colon = test system: KM20L2 colon
COLO 205 colon = test system: COLO 205 colon
NCI-H226 lung = test system: NCI-H226 lung
HT29 colon = test system: HT29 colon
HOP-62 NSCLC = test system: HOP-62 NSCLC
MALME-3M melanoma = test system: MALME-3M melanoma
KM12 colon = test system: KM12 colon
EKVX NSCLC = test system: EKVX NSCLC
786-0 renal = test system: 786-0 renal
IGROV1 ovarian = test system: IGROV1 ovarian
U251 CNS = test system: U251 CNS
NCI-H460 lung = test system: NCI-H460 lung
SN12C renal = test system: SN12C renal
HCT-116 colon = test system: HCT-116 colon
DMS 273 small cell lung = test system: DMS 273 small cell lung
SNB-78 CNS = test system: SNB-78 CNS
HCT-15 colon = test system: HCT-15 colon
A549 NSCLC = test system: A549 NSCLC
SNB-19 CNS = test system: SNB-19 CNS
SK-MEL-28 melanoma = test system: SK-MEL-28 melanoma
RXF 393 renal = test system: RXF 393 renal
M19-MEL melanoma = test system: M19-MEL melanoma
K-562 leukemia = test system: K-562 leukemia
DMS 114 small cell lung = test system: DMS 114 small cell lung
DLD-1 colon = test system: DLD-1 colon
M14 melanoma = test system: M14 melanoma
HOP-18 NSCLC = test system: HOP-18 NSCLC
TK-10 renal = test system: TK-10 renal
OVCAR-3 ovarian = test system: OVCAR-3 ovarian
A498 renal = test system: A498 renal
UO-31 renal = test system: UO-31 renal
ACHN renal = test system: ACHN renal
LOX IMVI melanoma = test system: LOX IMVI melanoma
CCRF-CEM leukemia = test system: CCRF-CEM leukemia
SNB-75 CNS = test system: SNB-75 CNS
RXF-631 renal = test system: RXF-631 renal
NCI-H23 lung = test system: NCI-H23 lung
LXFL 529 NSCLC = test system: LXFL 529 NSCLC
MOLT-4 leukemia = test system: MOLT-4 leukemia
SK-OV-3 ovarian = test system: SK-OV-3 ovarian
UACC-62 melanoma = test system: UACC-62 melanoma
OVCAR-5 ovarian = test system: OVCAR-5 ovarian
SR leukemia = test system: SR leukemia
HCC-2998 colon = test system: HCC-2998 colon
XF 498 CNS = test system: XF 498 CNS
OVCAR-4 ovarian = test system: OVCAR-4 ovarian
UACC-257 melanoma = test system: UACC-257 melanoma
SF-295 CNS = test system: SF-295 CNS
RPMI-8226 leukemia = test system: RPMI-8226 leukemia
CAKI-1 renal = test system: CAKI-1 renal

Cc1ccccc1C1OC(=O)c2ccccc21 (stereo unspecified)
> 100 µM: TGI (SF-539 CNS) | TGI (OVCAR-8 ovarian) | TGI (SK-MEL-2 melanoma) | TGI (SF-268 CNS) | TGI (HL-60(TB) leukemia) | TGI (SK-MEL-5 melanoma) | TGI (NCI-H522 lung) | TGI (SW-620 colon) | TGI (KM20L2 colon) | TGI (COLO 205 colon) | TGI (NCI-H226 lung) | TGI (HT29 colon) | TGI (HOP-62 NSCLC) | TGI (MALME-3M melanoma) | TGI (KM12 colon) | TGI (EKVX NSCLC) | TGI (786-0 renal) | TGI (IGROV1 ovarian) | TGI (U251 CNS) | TGI (NCI-H460 lung) | TGI (SN12C renal) | TGI (HCT-116 colon) | TGI (DMS 273 small cell lung) | TGI (SNB-78 CNS) | TGI (HCT-15 colon) | TGI (A549 NSCLC) | TGI (SNB-19 CNS) | TGI (SK-MEL-28 melanoma) | TGI (RXF 393 renal) | TGI (M19-MEL melanoma) | TGI (K-562 leukemia) | TGI (DMS 114 small cell lung) | TGI (DLD-1 colon) | TGI (M14 melanoma) | TGI (HOP-18 NSCLC) | TGI (TK-10 renal) | TGI (OVCAR-3 ovarian) | TGI (A498 renal) | TGI (UO-31 renal) | TGI (ACHN renal) | TGI (LOX IMVI melanoma) | TGI (CCRF-CEM leukemia) | TGI (SNB-75 CNS) | TGI (RXF-631 renal) | TGI (NCI-H23 lung) | TGI (LXFL 529 NSCLC) | TGI (MOLT-4 leukemia) | TGI (SK-OV-3 ovarian) | TGI (UACC-62 melanoma) | TGI (OVCAR-5 ovarian) | TGI (SR leukemia) | TGI (HCC-2998 colon)

CC[O-].CC[O-].O=C([CH-]C(=O)c1cccnc1)c1ccccc1.O=C([CH-]C(=O)c1cccnc1)c1ccccc1.[Ti+4]
70.4 µM: TGI (RXF 393 renal)
90.6 µM: TGI (XF 498 CNS)
69 µM: TGI (SNB-75 CNS)
inactive: GI50 (SF-539 CNS) 43.1 µM | GI50 (OVCAR-8 ovarian) 26.2 µM | GI50 (SK-MEL-2 melanoma) > 100 µM | GI50 (SF-268 CNS) 88.3 µM | GI50 (HL-60(TB) leukemia) 27.9 µM | GI50 (SK-MEL-5 melanoma) > 100 µM | GI50 (NCI-H522 lung) 26.1 µM | GI50 (SW-620 colon) 96.8 µM | GI50 (KM20L2 colon) 62 µM | GI50 (XF 498 CNS) 32.8 µM | GI50 (NCI-H226 lung) 68.1 µM | GI50 (OVCAR-4 ovarian) > 100 µM | GI50 (HT29 colon) 57.1 µM | GI50 (HOP-62 NSCLC) 48.4 µM | GI50 (MALME-3M melanoma) > 100 µM | GI50 (KM12 colon) 32.7 µM | GI50 (EKVX NSCLC) > 100 µM | GI50 (UACC-257 melanoma) 52.2 µM | GI50 (786-0 renal) 61.1 µM | GI50 (IGROV1 ovarian) > 100 µM | GI50 (U251 CNS) 27.2 µM | GI50 (NCI-H460 lung) 31.2 µM | GI50 (SF-295 CNS) 77.6 µM | GI50 (RPMI-8226 leukemia) 55.8 µM | GI50 (SN12C renal) > 100 µM | GI50 (HCT-116 colon) > 100 µM | GI50 (DMS 273 small cell lung) 68.6 µM | GI50 (SNB-78 CNS) > 100 µM | GI50 (HCT-15 colon) 18.3 µM | GI50 (CAKI-1 renal) > 100 µM | GI50 (A549 NSCLC) > 100 µM | GI50 (SNB-19 CNS) 50 µM | GI50 (SK-MEL-28 melanoma) > 100 µM | GI50 (RXF 393 renal) 19.7 µM | GI50 (M19-MEL melanoma) 77.7 µM | GI50 (K-562 leukemia) 36.2 µM | GI50 (DMS 114 small cell lung) > 100 µM | GI50 (M14 melanoma) 60.4 µM | GI50 (OVCAR-3 ovarian) > 100 µM | GI50 (A498 renal) > 100 µM | GI50 (UO-31 renal) > 100 µM | GI50 (ACHN renal) 53.4 µM | GI50 (LOX IMVI melanoma) > 100 µM | GI50 (SNB-75 CNS) 19.9 µM | GI50 (RXF-631 renal) 25.9 µM | GI50 (LXFL 529 NSCLC) 43.6 µM | GI50 (MOLT-4 leukemia) 13.6 µM | GI50 (SK-OV-3 ovarian) 91.8 µM | GI50 (UACC-62 melanoma) > 100 µM | GI50 (OVCAR-5 ovarian) > 100 µM | GI50 (SR leukemia) 25.5 µM | GI50 (HCC-2998 colon) > 100 µM
85 µM: TGI (HL-60(TB) leukemia)
> 100 µM: TGI (SF-539 CNS) | TGI (OVCAR-8 ovarian) | TGI (SK-MEL-2 melanoma) | TGI (SF-268 CNS) | TGI (SK-MEL-5 melanoma) | TGI (NCI-H522 lung) | TGI (SW-620 colon) | TGI (KM20L2 colon) | TGI (NCI-H226 lung) | TGI (OVCAR-4 ovarian) | TGI (HT29 colon) | TGI (HOP-62 NSCLC) | TGI (MALME-3M melanoma) | TGI (KM12 colon) | TGI (EKVX NSCLC) | TGI (UACC-257 melanoma) | TGI (786-0 renal) | TGI (IGROV1 ovarian) | TGI (U251 CNS) | TGI (NCI-H460 lung) | TGI (SF-295 CNS) | TGI (RPMI-8226 leukemia) | TGI (SN12C renal) | TGI (HCT-116 colon) | TGI (DMS 273 small cell lung) | TGI (SNB-78 CNS) | TGI (HCT-15 colon) | TGI (CAKI-1 renal) | TGI (A549 NSCLC) | TGI (SNB-19 CNS) | TGI (SK-MEL-28 melanoma) | TGI (M19-MEL melanoma) | TGI (K-562 leukemia) | TGI (DMS 114 small cell lung) | TGI (M14 melanoma) | TGI (OVCAR-3 ovarian) | TGI (A498 renal) | TGI (UO-31 renal) | TGI (ACHN renal) | TGI (LOX IMVI melanoma) | TGI (RXF-631 renal) | TGI (LXFL 529 NSCLC) | TGI (MOLT-4 leukemia) | TGI (SK-OV-3 ovarian) | TGI (UACC-62 melanoma) | TGI (OVCAR-5 ovarian) | TGI (SR leukemia) | TGI (HCC-2998 colon)
